Test results from US12187742B2 (XRAD Therapeutics, Inc., priority 2018, dated 2025).
Counter-ions that a name gives are not always drawn.

target: ATM (Homo sapiens (Human), UniProt Q13315); experiment: ATM in Cell Western Assay (pKAP1 in etoposide-treated MCF-7 cells); type: cell-based; conditions: pKAP1 in etoposide-treated MCF-7 cells
Summary of the method: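 Cells received compounds in a 10-dose, 3-fold series from a 1 μM final top concentration, then 100 μM etoposide, for 1 hr at 37° C. They were then fixed with paraformaldehyde and permeabilized with 0.1% Triton X-100. After immunostaining, plates were scanned on an infrared imager.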

Sequence of ATM (Q13315 whole entry): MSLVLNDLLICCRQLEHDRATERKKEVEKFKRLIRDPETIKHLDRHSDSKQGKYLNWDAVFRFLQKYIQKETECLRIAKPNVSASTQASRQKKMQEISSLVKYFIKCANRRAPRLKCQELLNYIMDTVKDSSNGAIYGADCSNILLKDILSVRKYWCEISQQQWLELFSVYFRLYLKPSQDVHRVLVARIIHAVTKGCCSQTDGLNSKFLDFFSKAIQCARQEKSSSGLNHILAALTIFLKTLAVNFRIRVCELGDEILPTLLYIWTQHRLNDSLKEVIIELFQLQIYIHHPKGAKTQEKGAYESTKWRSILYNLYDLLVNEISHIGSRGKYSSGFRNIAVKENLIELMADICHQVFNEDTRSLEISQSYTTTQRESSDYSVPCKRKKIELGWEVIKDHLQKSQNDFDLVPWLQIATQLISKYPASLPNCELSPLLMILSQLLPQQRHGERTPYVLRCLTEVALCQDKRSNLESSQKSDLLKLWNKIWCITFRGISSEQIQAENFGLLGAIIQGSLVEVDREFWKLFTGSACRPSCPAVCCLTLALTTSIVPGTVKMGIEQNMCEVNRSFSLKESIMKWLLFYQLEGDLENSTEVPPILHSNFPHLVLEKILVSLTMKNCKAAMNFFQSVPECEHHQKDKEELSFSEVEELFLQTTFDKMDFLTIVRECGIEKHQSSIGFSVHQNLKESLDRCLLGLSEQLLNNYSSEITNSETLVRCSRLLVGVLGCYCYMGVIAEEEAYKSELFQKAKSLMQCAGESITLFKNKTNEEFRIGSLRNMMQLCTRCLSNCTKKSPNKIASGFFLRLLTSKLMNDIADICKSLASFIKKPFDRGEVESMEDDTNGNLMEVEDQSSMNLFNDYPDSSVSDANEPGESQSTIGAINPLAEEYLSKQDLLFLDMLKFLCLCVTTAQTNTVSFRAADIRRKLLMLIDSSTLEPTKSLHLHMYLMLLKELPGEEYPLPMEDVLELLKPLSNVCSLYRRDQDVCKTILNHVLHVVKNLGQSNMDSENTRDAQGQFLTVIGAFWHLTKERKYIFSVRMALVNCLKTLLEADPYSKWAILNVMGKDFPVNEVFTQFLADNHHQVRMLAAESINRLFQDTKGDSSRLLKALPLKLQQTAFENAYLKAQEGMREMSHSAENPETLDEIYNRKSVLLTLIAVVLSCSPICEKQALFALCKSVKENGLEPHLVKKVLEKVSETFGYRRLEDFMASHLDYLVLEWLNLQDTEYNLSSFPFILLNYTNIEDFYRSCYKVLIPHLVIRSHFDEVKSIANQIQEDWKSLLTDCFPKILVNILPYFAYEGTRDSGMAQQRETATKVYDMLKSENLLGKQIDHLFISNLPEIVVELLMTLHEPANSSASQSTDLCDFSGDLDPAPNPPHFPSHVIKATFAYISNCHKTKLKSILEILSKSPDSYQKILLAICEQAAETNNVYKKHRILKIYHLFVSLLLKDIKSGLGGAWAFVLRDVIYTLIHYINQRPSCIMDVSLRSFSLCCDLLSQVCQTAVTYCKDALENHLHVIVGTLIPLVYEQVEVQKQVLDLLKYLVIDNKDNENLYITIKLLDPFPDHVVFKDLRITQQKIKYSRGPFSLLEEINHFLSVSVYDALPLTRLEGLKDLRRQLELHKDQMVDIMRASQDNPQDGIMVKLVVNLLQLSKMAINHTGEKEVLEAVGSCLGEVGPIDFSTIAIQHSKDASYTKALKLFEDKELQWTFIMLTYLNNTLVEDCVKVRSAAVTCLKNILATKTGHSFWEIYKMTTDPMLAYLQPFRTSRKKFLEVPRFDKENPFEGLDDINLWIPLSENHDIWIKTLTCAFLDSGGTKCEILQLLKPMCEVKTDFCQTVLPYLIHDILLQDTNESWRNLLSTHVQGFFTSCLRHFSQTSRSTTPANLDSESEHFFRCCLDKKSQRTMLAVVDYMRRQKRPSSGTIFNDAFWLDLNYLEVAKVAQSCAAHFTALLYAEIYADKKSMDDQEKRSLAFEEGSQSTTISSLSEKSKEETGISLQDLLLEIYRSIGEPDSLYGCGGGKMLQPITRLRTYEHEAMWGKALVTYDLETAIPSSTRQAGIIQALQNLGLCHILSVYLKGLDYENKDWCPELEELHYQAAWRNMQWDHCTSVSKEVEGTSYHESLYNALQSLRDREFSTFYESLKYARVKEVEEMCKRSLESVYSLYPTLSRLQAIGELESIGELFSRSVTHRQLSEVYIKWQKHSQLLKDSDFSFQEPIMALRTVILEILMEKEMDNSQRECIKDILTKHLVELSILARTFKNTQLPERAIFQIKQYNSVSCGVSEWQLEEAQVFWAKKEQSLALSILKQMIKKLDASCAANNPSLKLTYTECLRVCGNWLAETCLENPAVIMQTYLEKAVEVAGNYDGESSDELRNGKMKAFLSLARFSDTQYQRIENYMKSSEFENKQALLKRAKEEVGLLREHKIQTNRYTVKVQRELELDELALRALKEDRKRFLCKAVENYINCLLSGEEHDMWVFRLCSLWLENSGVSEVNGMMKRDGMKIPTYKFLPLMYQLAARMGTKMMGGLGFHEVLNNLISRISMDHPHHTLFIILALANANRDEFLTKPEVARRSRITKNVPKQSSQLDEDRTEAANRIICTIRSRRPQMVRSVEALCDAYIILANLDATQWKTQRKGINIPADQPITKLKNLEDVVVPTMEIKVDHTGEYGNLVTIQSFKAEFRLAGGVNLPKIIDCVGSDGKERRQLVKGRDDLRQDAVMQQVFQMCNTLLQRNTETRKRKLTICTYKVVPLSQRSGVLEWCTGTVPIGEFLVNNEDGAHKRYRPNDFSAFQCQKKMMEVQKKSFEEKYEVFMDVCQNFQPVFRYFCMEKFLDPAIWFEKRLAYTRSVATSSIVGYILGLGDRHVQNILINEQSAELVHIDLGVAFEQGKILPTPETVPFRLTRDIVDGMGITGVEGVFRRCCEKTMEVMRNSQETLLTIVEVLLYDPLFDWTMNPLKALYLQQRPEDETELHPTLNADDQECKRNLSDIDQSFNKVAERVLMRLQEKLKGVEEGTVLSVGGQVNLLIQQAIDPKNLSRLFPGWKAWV

`COC[C@H]1C[C@@]2(C1)C(=O)N(C)c1cnc3cc(F)c(-c4cnc(OCCNC(C)C)c(NS(C)(=O)=O)c4)cc3c12` [Example 405, trans-N-(5-(7′-Fluoro-3-(methoxymethyl)-3′-methyl-2′-oxo-2′,3′-dihydrospiro[cyclobutane-1,1′-pyrrolo[2,3-c]quinolin]-8′-yl)-2-(2-(isopropylamino)ethoxy)pyridin-3-yl)methanesulfonamide] and `CCOC[C@H]1C[C@@]2(C1)C(=O)N(C)c1cnc3cc(F)c(-c4cnc(OCCNC(C)C)c(NS(C)(=O)=O)c4)cc3c12` [Example 407, trans-N-(5-(3-(Ethoxymethyl)-7′-fluoro-3′-methyl-2′-oxo-2′,3′-dihydrospiro[cyclobutane-1,1′-pyrrolo[2,3-c]quinolin]-8′-yl)-2-(2-(isopropylamino)ethoxy)pyridin-3-yl)methanesulfonamide] fall in the same range of IC50: 1 to 100 nM for the first, 1 to 100 nM for the second.

`CC(C)NCCOc1ncc(-c2cc3c(cc2F)ncc2c3[C@]3(C[C@@H](COc4ccccc4)C3)C(=O)N2C)cc1NS(C)(=O)=O` [Example 408, trans-N-(5-(7′-Fluoro-3′-methyl-2′-oxo-3-(phenoxymethyl)-2′,3′-dihydrospiro[cyclobulane-1,1′-pyrrolo[2,3-c]quinolin]-8′-yl)-2-(2-(isopropylamino)ethoxy)pyridin-3-yl)methanesulfonamide] and `CC(C)NCCOc1ncc(-c2cc3c(cc2F)ncc2c3[C@]3(C[C@@H](Cc4ccccc4)C3)C(=O)N2C)cc1NS(C)(=O)=O` [Example 450, trans-N-(5-(3-Benzyl-7-fluoro-3′-methyl-2′-oxo-2′,3′-dihydrospiro [cyclobutane-1,1′-pyrrolo[2,3-c]quinolin]-8′-yl)-2-(2-(isopropylamino)ethoxy)pyridin-3-yl)methanesulfonamide] fall in the same range of IC50: 1 to 100 nM for the first, 1 to 100 nM for the second.

`CC(C)NCCOc1ncc(-c2cc3c(cc2F)ncc2c3[C@]3(C[C@@H](COC(C)C)C3)C(=O)N2C)cc1NS(C)(=O)=O` [Example 411, trans-N-{5-(7′-Fluoro-3-(isopropoxymethyl)-3′-methyl-2′-oxo-2′,3′-dihydrospiro[cyclobutane-1,1′-pyrrolo[2,3-c]quinolin]-8′-yl)-2-(2-(isopropylamino)ethoxy)pyridin-3-yl)methanesulfonamide] and `CC(C)NCCOc1ncc(-c2cc3c(cc2F)ncc2c3[C@]3(C[C@@H](COC(C)C)C3)C(=O)N2C)cc1NS(=O)(=O)C(C)C` [Example 413, trans-N-{5-(7′-Fluoro-3-(isopropoxymethyl)-3′-methyl-2′-oxo-2′,3′-dihydrospiro[cyclobutane-1,1′-pyrrolo[2,3-c]quinolin]-8′-yl)-2-(2-(isopropylamino)ethoxy)pyridin-3-yl)propane-2-sulfonamide] fall in the same range of IC50: 1 to 100 nM for the first, 1 to 100 nM for the second.

First: CC(C)NCCOc1ncc(-c2cc3c(cc2F)ncc2c3[C@]3(C[C@H](c4ccc(F)cc4)C3)C(=O)N2C)cc1NS(C)(=O)=O [Example 422, cis-N-(5-(7′-Fluoro-3-(4-fluorophenyl)-3′-methyl-2′-oxo-2′,3′-dihydrospiro[cyclobutane-1,1′-pyrrolo[2,3-c]quinolin]-8′-yl)-2-(2-(isopropylamino)ethoxy)pyridin-3-yl)methanesulfonamide]
Second: CC(C)NCCOc1ncc(-c2cc3c(cc2F)ncc2c3[C@]3(C[C@H](c4ccc(=O)[nH]c4)C3)C(=O)N2C)cc1NS(C)(=O)=O [Example 442, cis-N-(5-(7′-Fluoro-3′-methyl-2′-oxo-3-(6-oxo-1,6-dihydropyridin-3-yl)-2′,3′-dihydrospiro[cyclobutane-1,1′-pyrrolo[2,3-c]quinolin]-8′-yl)-2-(2-(isopropylamino)ethoxy)pyridin-3-yl)methanesulfonamide]
The IC50 of the first is lower: 1 to 100 nM for the first, > 100 nM for the second. The first is the more potent here.

`CC(C)NCCOc1ncc(-c2cc3c(cc2F)ncc2c3[C@]3(C[C@@H](c4cccc(=O)[nH]4)C3)C(=O)N2C)cc1NS(C)(=O)=O` [Example 441, trans-N-(5-(7′-Fluoro-3′-methyl-2′-oxo-3-(6-oxo-1,6-dihydropyridin-2-yl)-2′,3′-dihydrospiro[cyclobutane-1,1′-pyrrolo[2,3-c]quinolin]-8′-yl)-2-(2-(isopropylamino)ethoxy)pyridin-3-yl)methanesulfonamide] and `CC(C)NCCOc1ncc(-c2cc3c(cc2F)ncc2c3[C@]3(C[C@@H](c4ccc(=O)[nH]c4)C3)C(=O)N2C)cc1NS(C)(=O)=O` [Example 443, trans-N-(5-(7′-Fluoro-3′-methyl-2′-oxo-3-(6-oxo-1,6-dihydropyridin-3-yl)-2′,3′-dihydrospiro[cyclobutane-1,1′-pyrrolo[2,3-c]quinolin]-8′-yl)-2-(2-(isopropylamino)ethoxy)pyridin-3-yl)methanesulfonamide] cannot be ordered by IC50: > 100 nM for the first, > 100 nM for the second.

`CC(C)NCCOc1ncc(-c2cc3c(cc2F)ncc2c3[C@]3(C[C@H](c4cc[nH]c(=O)c4)C3)C(=O)N2C)cc1NS(C)(=O)=O` [Example 444, cis-N-(5-(7′-fluoro-3′-methyl-2′-oxo-3-(2-oxo-1,2-dihydropyridin-4-yl)-2,3′-dihydrospiro[cyclobulane-1,1′-pyrrolo[2,3-c]quinolin]-8′-yl)-2-(2-(isopropylamino)ethoxy)pyridin-3-yl)methanesulfonamide] and `CC(C)NCCOc1ncc(-c2cc3c(cc2F)ncc2c3[C@]3(C[C@@H](c4cc[nH]c(=O)c4)C3)C(=O)N2C)cc1NS(C)(=O)=O` [Example 445, trans-N-(5-(7′-Fluoro-3′-methyl-2′-oxo-3-(2-oxo-l,2-dihydropyridin-4-yl)-2′,3′-dihydrospiro[cyclobutane-1,1′-pyrrolo[2,3-c]quinolin]-8′-yl)-2-(2-(isopropylamino)ethoxy)pyridin-3-yl)methanesulfonamide] cannot be ordered by IC50: > 100 nM for the first, > 100 nM for the second.

First: CC(C)NCCOc1ncc(-c2cc3c(cc2F)ncc2c3[C@]3(C[C@@H](C)C3)C(=O)N2C)cc1NS(C)(=O)=O [Example 447, trans-N-(5-(7′-Fluoro-3,3′-dimethyl-2′-oxo-2′,3′-dihydrospiro[cyclobutane-1,1′-pyrrolo[2,3-c]quinolin]-8′-yl)-2-(2-(isopropylamino)ethoxy)pyridin-3-yl)methanesulfonamide]
Second: CNC[C@H]1C[C@]2(C1)C(=O)N(C)c1cnc3cc(F)c(-c4cnc(OCCNC(C)C)c(NS(C)(=O)=O)c4)cc3c12 [Example 454, cis-N-(5-(7′-Fluoro-3′-methyl-3-((methylamino)methyl)-2′-oxo-2′,3′-dihydrospiro[cyclobutane-1,1′-pyrrolo[2,3-c]quinolin]-8′-yl)-2-(2-(isopropylamino)ethoxy)pyridin-3-yl)methanesulfonamide]
The IC50 of the first is lower: 1 to 100 nM for the first, > 100 nM for the second.

`CN(C)CCCOc1c(NS(C)(=O)=O)cc(-c2ccc3ncc4c(c3c2)C2(CCC2)C(=O)N4C)cc1C(N)=O` [Example 449, 2-(3-(Dimethylamino)propoxy)-5-(3′-methyl-2′-oxo-2′,3′-dihydrospiro[cyclobutane-1,1′-pyrrolo[2,3-c]quinolin]-8′-yl)-3-(methylsulfonamido)benzamide] and `CC(C)NCCOc1ncc(-c2cc3c(cc2F)ncc2c3[C@]3(C[C@H](CN(C)C)C3)C(=O)N2C)cc1NS(C)(=O)=O` [Example 452, cis-N-(5-(3-((Dimethylamino)methyl)-7′-fluoro-3′-methyl-2′-oxo-2′,3′-dihydrospiro[cyclobutane-1,1′-pyrrolo[2,3-c]quinolin]-8′-yl)-2-(2-(isopropylamino)ethoxy)pyridin-3-yl)methanesulfonamide] fall in the same range of IC50: 1 to 100 nM for the first, 1 to 100 nM for the second.

First: CC(C)NCCOc1ncc(-c2cc3c(cc2F)ncc2c3[C@]3(C[C@@H](CN(C)C)C3)C(=O)N2C)cc1NS(C)(=O)=O [Example 453, trans-N-(5-(3-((Dimethylamino)methyl)-7′-fluoro-3′-methyl-2′-oxo-2′,3′-dihydrospiro[cyclobutane-1,1′-pyrrolo[2,3-c]quinolin]-8′-yl)-2-(2-(isopropylamino)ethoxy)pyridin-3-yl)methanesulfonamide]
Second: CNC[C@H]1C[C@@]2(C1)C(=O)N(C)c1cnc3cc(F)c(-c4cnc(OCCNC(C)C)c(NS(C)(=O)=O)c4)cc3c12 [Example 455, trans-N-(5-(7′-Fluoro-3′-methyl-3-((methylamino)methyl)-2′-oxo-2′,3′-dihydrospiro[cyclobutane-1,1′-pyrrolo[2,3-c]quinolin]-8′-yl)-2-(2-(isopropylamino)ethoxy)pyridin-3-yl)methanesulfonamide hydrochloride]
The IC50 of the first is lower: 1 to 100 nM for the first, > 100 nM for the second.

Compared with `CC(C)NCCOc1ncc(-c2cc3c(cc2F)ncc2c3[C@]3(C[C@@H](C(C)(C)O)C3)C(=O)N2C)cc1NS(C)(=O)=O` [Example 457, trans-N-(5-(7′-Fluoro-3-(2-bydroxypropan-2-yl)-3′-methyl-2′-oxo-2′,3′-dihydrospiro[cyclobutane-1,1′-pyrrolo[2,3-c]quinolin]-8′-yl)-2-(2-(isopropylamino)ethoxy)pyridin-3-yl)methanesulfonamide], `CC(C)NCCOc1ncc(-c2cc3c(cc2F)ncc2c3[C@]3(C[C@@H](N(C)c4ccccc4)C3)C(=O)N2C)cc1NS(C)(=O)=O` [Example 464, trans-N-{5-(7′-Fluoro-3′-methyl-3-(methyl(phenyl)amino)-2′-oxo-2′,3′-dihydrospiro[cyclobutane-1,1′-pyrrolo[2,3-c]quinolin]-8′-yl)-2-(2-(isopropylamino)ethoxy)pyridin-3-yl)methanesulfonamide] is higher in IC50: 1 to 100 nM for the first, > 100 nM for the second.

First: CC(C)NCCOc1ncc(-c2cc3c4c(cnc3cc2F)N(C)C(=O)C42CC3(CCNCC3)C2)cc1NS(C)(=O)=O [Example 458, N-(5-(7′--Fluoro-3″-methyl-2″-oxo-2″,3″-dihydrodispiro [piperidine-4,1′-cyclobutane-31″-pyrrolo[2,3-c]quinolin]-8″-yl)-2-(2-(isopropylamino)ethoxy)pyridin-3-yl) methanesulfonamide]
Second: CC(C)NCCOc1ncc(-c2cc3c(cc2F)ncc2c3[C@]3(C[C@@H](Nc4ccc(Cl)cc4)C3)C(=O)N2C)cc1NS(C)(=O)=O [Example 462, trans-N-(5-(3-((4-Chlorophenyl)amino)-7′-fluoro-3′-methyl-2′-oxo-2′,3′-dihydrospiro[cyclobutane-1,1′-pyrrolo[2,3-c]quinolin]-8′-yl)-2-(2-(isopropylamino)ethoxy)pyridin-3-yl)methanesulfonamide]
The IC50 of the first is higher: > 100 nM for the first, 1 to 100 nM for the second.
